# Reference: patent publication US20190234926A1, “METHOD OF PREDICTING FLAVOR PERFORMANCE” (McCormick & Company, Incorporated, priority 2016, published 2019)
# Test: Polarity measured as dielectric constant with a dielectric constant meter
# Assay type: physicochemical
# Details: at 20° C., general statement
# Source text: Polar solvents such as water heat up in a microwave much faster than non-polar oils. Flavors heat up somewhere in between depending on their polarity. Dipolar moment of molecules of various liquids is different and can be a measure of polarity of liquids. The dipolar moment is responsible for interaction of molecules in a liquid with the electromagnetic field of a microwave oven. One measure of dipolar moment is dielectric constant. Thus, dielectric constant is a sound measure of flavor polarity and can predict flavor properties and flavor-matrix interaction whether during processing or in final target applications. An example of one commercially available dielectric constant meter useful with the method described herein is a model BI-870 from Brookhaven Instruments. It can measure dielectric constant not only at 20° C. but in a broad temperature range.
# In support of development of flavors, encapsulation technologies, and applications, dielectric constant of key solvents used in flavor formulation (Table 1) were measured and a variety of target flavors (Table 2). […] Dielectric constants of binary blends of components fall in the range between the dielectric constants of individual components.
row,SMILES,Dielectric constant
1,"O [Water deionized, Water]",about 80

# Same assay, conditions: flavor components and compounded flavors incl. listed solvent, at about 20° C.
row,SMILES,Dielectric constant
1,CC(=O)C(C)=O [Diacetyl],4.4

# Same assay, conditions: solvents, at about 20° C.
row,SMILES,Dielectric constant
1,OCc1ccccc1 [Benzyl alcohol],13.8
2,"CCO [Ethanol (95%), Ethanol]",28.3
3,OCC(O)CO [Glycerin],46.1
4,CC(C)O [Isopropanol],20.8
5,CC(O)CO (stereo not drawn) [Propylene glycol],28.7
6,CC(=O)OCC(COC(C)=O)OC(C)=O [Triacetin],7.0
7,"O [Water deionized, Water]",79.2
